In US11999727B2 (Tango Therapeutics, Inc., priority 2020, dated 2024):
Like-named read-outs stand apart in the source and are kept apart here.

Experiments:
[1] = target: T1, PRMT5 (Homo sapiens, UniProt O14744); assay: PRMT5 biochemical IC50 assay with SAM as cofactor; conditions: PRMT5, SAM as cofactor; read-out: SAM IC50
T1 construct: purchased Viva (custom protein)

[2] = target: T1, PRMT5; assay: PRMT5 biochemical IC50 assay with no cofactor; conditions: PRMT5, no cofactor; read-out: No Cofactor/ rel IC50
From the text: Table 1 indicates IC50 values (μM) against PRMT5 for exemplary compounds in the presence of SAM as cofactor, with no cofactor, and with MTA as cofactor, respectively (columns 4-6). […] Ki values can be calculated from the IC50 values as described in the Examples section. As detailed in the Examples section, for the assay performed in the presence of SAM, IC50=Ki×1.5 (Ki=IC50/1.5).

[3] = target: T1, PRMT5; assay: PRMT5 biochemical IC50 assay with MTA as cofactor; conditions: PRMT5, MTA as cofactor; read-out: MTA IC50
[4] = test system: HAP1 MTAP-intact cell line; assay: SDMA in-cell western assay, HAP1 MTAP-intact; format: cell-based; conditions: HAP1 MTAP-intact, read-out: MTAP HAP1 intact IC50
Procedure, shortened: (§1)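 Isogenic HAP1 pair: the MTAP-intact line expresses endogenous MTAP, and the deleted line is MTAP-null. Symmetric dimethylarginine was detected by in-cell western and IC50 values derived for each line.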

[5] = test system: HAP1 MTAP-deleted cell line; assay: SDMA in-cell western assay, HAP1 MTAP-deleted; format: cell-based; conditions: for IC50: Homo sapiens, HAP1, SDMA in-cell western, HAP1 MTAP-deleted, read-out: HAP 1 MTAP deleted IC50; for MTAP intact/deleted ratio: IC50 ratio HAP1 MTAP-intact / HAP1 MTAP-deleted, SDMA in-cell western
Procedure, shortened: as §1

[6] = test system: HAP1 MTAP-deleted cell line; assay: Viability assay, MTAP-deleted cell line; format: cell-based; conditions: Homo sapiens, HAP1, viability, HAP1 MTAP-deleted cell line; read-out: HAP1 MTAP deleted viability
From the text: Table 1 additionally indicates IC50 values in a viability assay for the MTAP-deleted cell line (column 10), indicating the effect of treatment with compound on cell survival.

[7] = Homo sapiens, HAP1, SDMA in-cell western

T1 sequence (O14744 whole entry): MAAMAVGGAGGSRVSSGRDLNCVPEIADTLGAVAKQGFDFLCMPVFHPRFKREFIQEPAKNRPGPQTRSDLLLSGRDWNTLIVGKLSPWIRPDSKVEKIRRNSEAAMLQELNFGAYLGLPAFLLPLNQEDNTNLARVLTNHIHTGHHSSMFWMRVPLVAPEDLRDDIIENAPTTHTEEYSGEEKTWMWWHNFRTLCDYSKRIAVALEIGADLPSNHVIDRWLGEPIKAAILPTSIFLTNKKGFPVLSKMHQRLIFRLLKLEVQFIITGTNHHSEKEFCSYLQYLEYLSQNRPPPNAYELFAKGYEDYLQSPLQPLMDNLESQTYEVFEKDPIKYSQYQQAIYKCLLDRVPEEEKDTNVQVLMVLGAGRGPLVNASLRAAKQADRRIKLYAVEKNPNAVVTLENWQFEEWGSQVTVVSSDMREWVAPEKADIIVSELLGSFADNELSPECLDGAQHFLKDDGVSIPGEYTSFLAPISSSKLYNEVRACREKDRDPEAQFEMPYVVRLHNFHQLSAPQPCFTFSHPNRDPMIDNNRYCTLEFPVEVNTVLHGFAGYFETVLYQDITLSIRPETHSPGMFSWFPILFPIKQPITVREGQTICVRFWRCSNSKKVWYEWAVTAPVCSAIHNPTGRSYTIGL
T1 sequence (Q9BQA1 whole entry partner): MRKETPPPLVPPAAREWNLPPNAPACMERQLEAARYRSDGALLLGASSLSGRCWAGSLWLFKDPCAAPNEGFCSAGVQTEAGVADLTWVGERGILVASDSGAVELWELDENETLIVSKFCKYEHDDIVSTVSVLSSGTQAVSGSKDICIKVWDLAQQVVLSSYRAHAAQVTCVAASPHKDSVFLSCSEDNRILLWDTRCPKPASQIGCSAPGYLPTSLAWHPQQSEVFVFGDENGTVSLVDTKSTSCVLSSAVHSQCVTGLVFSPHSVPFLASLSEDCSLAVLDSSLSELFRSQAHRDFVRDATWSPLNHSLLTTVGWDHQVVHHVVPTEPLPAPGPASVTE

SMILES: CCc1cc(NC(=O)C(=O)N2C[C@@H](C)CC[C@@H]2c2ccc3sc([C@H]4CN(C)CCO4)nc3c2)cnc1N [Compound 1275, N-(6-amino-5-ethylpyridin-3-yl)-2-((2R,5S)-5-methyl-2-(2-(4-methylmorpholin-2-yl)benzo[d]thiazol-5-yl)piperidin-1-yl)-2-oxoacetamide]
- IC50 [1]: 50 to 500 nM
- IC50 [2]: < 50 nM
- IC50 [3]: < 50 nM
- IC50 ([4]; SDMA in-cell western): 100 to 1000 nM
- IC50 [5]: < 100 nM
- MTAP intact/deleted ratio [5]: A (an IC50 ratio greater than or equal to 10 fold)
- IC50 [6]: < 1000 nM

SMILES: CCc1cc(NC(=O)C(=O)N2C[C@@H](C)CC[C@@H]2c2ccc(N3CCC(CN4CCCC4)CC3)cc2)cnc1N [Compound 1276, N-(6-Amino-5-ethylpyridin-3-yl)-2-[(2R,5S)-5-methyl-2-(4-{4-[(pyrrolidin-1-yl)methyl]piperidin-1-yl}phenyl)piperidin-1-yl]-2-oxoacetamide]
- IC50 [1]: < 50 nM
- IC50 [2]: < 50 nM
- IC50 [3]: < 50 nM
- IC50 [4, 7]: 100 to 1000 nM
- IC50 [5]: < 100 nM
- MTAP intact/deleted ratio [5]: A (an IC50 ratio greater than or equal to 10 fold)
- IC50 [6]: < 1000 nM

SMILES: CCc1cc(NC(=O)C(=O)N2C[C@@H](C)CC[C@@H]2c2ccc3sc(C4CCCN4C)nc3c2)cnc1N (stereo partly drawn) [Compound 1282, N-(6-amino-5-ethylpyridin-3-yl)-2-((2R,5S)-5-methyl-2-(2-(1-methylpyrrolidin-2-yl)benzo[d]thiazol-5-yl)piperidin-1-yl)-2-oxoacetamide]
- IC50 [1]: 50 to 500 nM
- IC50 [2]: < 50 nM
- IC50 [3]: < 50 nM
- IC50 [4, 7]: 100 to 1000 nM
- IC50 [5]: < 100 nM
- MTAP intact/deleted ratio [5]: A (an IC50 ratio greater than or equal to 10 fold)
- IC50 [6]: < 1000 nM

SMILES: CCc1cc(NC(=O)C(=O)N2C[C@@H](C)CC[C@@H]2c2ccc3sc(C4CC5(C4)CN(C)C5)nc3c2)cnc1N [Compound 1283, N-(6-amino-5-ethylpyridin-3-yl)-2-((2R,5S)-5-methyl-2-(2-(2-methyl-2-azaspiro[3.3]heptan-6-yl)benzo[d]thiazol-5-yl)piperidin-1-yl)-2-oxoacetamide]
- IC50 [1]: < 50 nM
- IC50 [2]: < 50 nM
- IC50 [3]: < 50 nM
- IC50 [4, 7]: < 100 nM
- IC50 [5]: < 100 nM
- MTAP intact/deleted ratio [5]: A (an IC50 ratio greater than or equal to 10 fold)
- IC50 [6]: < 1000 nM

SMILES: COc1ncc(NC(=O)C(=O)N2C[C@@H](C)CC[C@@H]2c2ccc3sc(CCN4CCCC4)nc3c2)cc1C(N)=O [Compound 1288, 2-methoxy-5-(2-((2R,53)-5-methyl-2-(2-(2-(pyrrolidin-1-yl)ethyl)benzo[d]thiazol-5-yl)piperidin-1-yl)-2-oxoacetamido)nicotinamide]
- IC50 [1]: 50 to 500 nM
- IC50 [2]: 50 to 500 nM
- IC50 [3]: < 50 nM
- IC50 [4, 7]: 100 to 1000 nM
- IC50 [5]: < 100 nM
- MTAP intact/deleted ratio [5]: A (an IC50 ratio greater than or equal to 10 fold)
- IC50 [6]: < 1000 nM

SMILES: CCc1cc(NC(=O)C(=O)N2C[C@@H](C)CC[C@@H]2c2cccc(OC[C@@H](C)N(C)C)c2)cnc1N [Compound 1290, N-(6-amino-5-ethylpyridin-3-yl)-2-((2R,5S)-2-(3-(2-(dimethylamino)propoxy)phenyl)-5-methylpiperidin-1-yl)-2-oxoacetamide]
- IC50 [1]: 50 to 500 nM
- IC50 [2]: < 50 nM
- IC50 [3]: < 50 nM
- IC50 [4, 7]: 100 to 1000 nM
- IC50 [5]: < 100 nM
- MTAP intact/deleted ratio [5]: A (an IC50 ratio greater than or equal to 10 fold)
- IC50 [6]: < 1000 nM

SMILES: CCc1cc(NC(=O)C(=O)N2C[C@@H](C)CC[C@@H]2c2ccc(OCCN(C)C)cc2)cnc1N [Compound 1292, N-(6-amino-5-ethylpyridin-3-yl)-2-((2R,5S)-2-(4-(2-(dimethylamino)ethoxy)phenyl)-5-methylpiperidin-1-yl)-2-oxoacetamide]
- IC50 [1]: 50 to 500 nM
- IC50 [2]: < 50 nM
- IC50 [3]: < 50 nM
- IC50 [4, 7]: 100 to 1000 nM
- IC50 [5]: < 100 nM
- MTAP intact/deleted ratio [5]: A (an IC50 ratio greater than or equal to 10 fold)
- IC50 [6]: < 1000 nM

SMILES: CCc1cc(NC(=O)C(=O)N2C[C@@H](C)CC[C@@H]2c2ccc(N3CCN(C)C[C@H]3C)nc2)cnc1N [Compound 1294, N-(6-amino-5-ethyl-3-pyridyl)-2-[(2R,5S)-2-[6-[(2R)-2,4-dimethylpiperazin-1-yl]-3-pyridyl]-5-methyl-1-piperidyl]-2-oxo-acetamide]
- IC50 [1]: 50 to 500 nM
- IC50 [2]: < 50 nM
- IC50 [3]: < 50 nM
- IC50 [4, 7]: 100 to 1000 nM
- IC50 [5]: < 100 nM
- MTAP intact/deleted ratio [5]: A (an IC50 ratio greater than or equal to 10 fold)
- IC50 [6]: < 1000 nM

SMILES: Cc1cc(NC(=O)C(=O)N2C[C@@H](C)CC[C@@H]2c2ccc3sc(CCN4CCCC4)nc3c2)cnc1N [Compound 1296, N-(6-amino-5-methylpyridin-3-yl)-2-((2R,5S)-5-methyl-2-(2-(2-(pyrrolidin-1-yl)ethyl)benzo[d]thiazol-5-yl)piperidin-1-yl)-2-oxoacetamide]
- IC50 [1]: < 50 nM
- IC50 [2]: < 50 nM
- IC50 [3]: < 50 nM
- IC50 [4, 7]: < 100 nM
- IC50 [5]: < 100 nM
- MTAP intact/deleted ratio [5]: A (an IC50 ratio greater than or equal to 10 fold)
- IC50 [6]: < 1000 nM

SMILES: CCc1cc(NC(=O)C(=O)N2C[C@@H](C)CC[C@@H]2c2ccc3sc(C45CCN(CC4)C5)nc3c2)cnc1N [Compound 1298, 2-((2R,5S)-2-(2-(1-azabicyclo[2.2.1]heptan-4-yl)benzo[d]thiazol-5-yl)-5-methylpiperidin-1-yl)-N-(6-amino-5-ethylpyridin-3-yl)-2-oxoacetamide]
- IC50 [1]: 50 to 500 nM
- IC50 [2]: < 50 nM
- IC50 [3]: < 50 nM
- IC50 [4, 7]: < 100 nM
- IC50 [5]: < 100 nM
- MTAP intact/deleted ratio [5]: B (an IC50 ratio greater than or equal to 3 fold but lower than 10 fold)
- IC50 [6]: < 1000 nM

SMILES: Cc1ncc(NC(=O)C(=O)N2C[C@@H](C)CC[C@@H]2c2ccc3sc(C4CCN(C)CC4)nc3c2)cc1C(F)(F)F [Compound 1300, 2-((2R,5)-5-methyl-2-(2-(1-methylpiperidin-4-yl)benzo[d]thiazol-5-yl)piperidin-1-yl)-N-(6-methyl-5-(trifluoromethyl)pyridin-3-yl)-2-oxoacetamide]
- IC50 [1]: 50 to 500 nM
- IC50 [2]: < 50 nM
- IC50 [3]: < 50 nM
- IC50 [4, 7]: 100 to 1000 nM
- IC50 [5]: < 100 nM
- MTAP intact/deleted ratio [5]: A (an IC50 ratio greater than or equal to 10 fold)
- IC50 [6]: < 1000 nM

SMILES: Cc1ncc(NC(=O)C(=O)N2C[C@@H](C)CC[C@@H]2c2ccc3sc(C4CCN(C)CC4)nc3c2)cc1C(F)F [Compound 1301]
- IC50 [1]: < 50 nM
- IC50 [2]: < 50 nM
- IC50 [3]: < 50 nM
- IC50 [4, 7]: < 100 nM
- IC50 [5]: < 100 nM
- MTAP intact/deleted ratio [5]: A (an IC50 ratio greater than or equal to 10 fold)
- IC50 [6]: < 1000 nM

SMILES: CCc1cc(NC(=O)C(=O)N2C[C@@H](C)CC[C@@H]2c2ccc3sc(CN(C)C(C)C)nc3c2)cnc1N [Compound 1303, N-(6-amino-5-ethylpyridin-3-yl)-2-((2R,5S)-2-(2-((isopropyl(methyl)amino)methyl)benzo[d]thiazol-5-yl)-5-methylpiperidin-1-yl)-2-oxoacetamide]
- IC50 [1]: 50 to 500 nM
- IC50 [2]: < 50 nM
- IC50 [3]: < 50 nM
- IC50 [4, 7]: 100 to 1000 nM
- IC50 [5]: < 100 nM
- MTAP intact/deleted ratio [5]: A (an IC50 ratio greater than or equal to 10 fold)
- IC50 [6]: < 1000 nM

SMILES: CCc1cc(NC(=O)C(=O)N2C[C@@H](C)CC[C@@H]2c2ccc3sc(C4CCN(CC(F)F)CC4)nc3c2)cnc1N [Compound 1304, N-(6-amino-5-ethylpyridin-3-yl)-2-((2R,5S)-2-(2-(1-(2,2-difluoroethyl)piperidin-4-yl)benzo[d]thiazol-5-yl)-5-methylpiperidin-1-yl)-2-oxoacetamide]
- IC50 [1]: < 50 nM
- IC50 [2]: < 50 nM
- IC50 [3]: < 50 nM
- IC50 [4, 7]: 100 to 1000 nM
- IC50 [5]: < 100 nM
- MTAP intact/deleted ratio [5]: A (an IC50 ratio greater than or equal to 10 fold)
- IC50 [6]: < 1000 nM

SMILES: CCc1cc(NC(=O)C(=O)N2C[C@@H](C)CC[C@@H]2c2ccc(NC3CCN(C)CC3)nc2)cnc1N [Compound 1306, N-(6-Amino-5-ethyl-3-pyridyl)-2-[(2R,5S)-5-methyl-2-[6-[(1-methyl-4-piperidyl)amino]-3-pyridyl]-1-piperidyl]-2-oxo-acetamide]
- IC50 [1]: 50 to 500 nM
- IC50 [2]: < 50 nM
- IC50 [3]: < 50 nM
- IC50 [4, 7]: 100 to 1000 nM
- IC50 [5]: < 100 nM
- MTAP intact/deleted ratio [5]: A (an IC50 ratio greater than or equal to 10 fold)
- IC50 [6]: < 1000 nM

SMILES: Cc1ncc(NC(=O)C(=O)N2C[C@@H](C)CC[C@@H]2c2ccc3sc(C4CCN(C)CC4)nc3c2)cc1C1COC1 [Compound 1309, 2-((2R,5S)-5-methyl-2-(2-(1-methylpiperidin-4-yl)benzo[d]thiazol-5-yl)piperidin-1-yl)-N-(6-methyl-5-(oxetan-3-yl)pyridin-3-yl)-2-oxoacetamide]
- IC50 [1]: < 50 nM
- IC50 [2]: < 50 nM
- IC50 [3]: < 50 nM
- IC50 [4, 7]: < 100 nM
- IC50 [5]: < 100 nM
- MTAP intact/deleted ratio [5]: A (an IC50 ratio greater than or equal to 10 fold)
- IC50 [6]: < 1000 nM
